Source: EP3156398A1, “AGONISTS OF THE CHEMOKINE RECEPTOR CXCR3” (Friedrich-Alexander-Universität Erlangen-Nürnberg, priority 2015, dated 2017)
Entries after “also recorded” stand apart in the source; their conditions may differ.

Molecular target: T1, CXCR3-eGFP (Homo sapiens, UniProt P49682)
T1 construct: expressed in transfected cells; host or cells: HEK293T cells, transient
T1 sequence (P49682 1-368): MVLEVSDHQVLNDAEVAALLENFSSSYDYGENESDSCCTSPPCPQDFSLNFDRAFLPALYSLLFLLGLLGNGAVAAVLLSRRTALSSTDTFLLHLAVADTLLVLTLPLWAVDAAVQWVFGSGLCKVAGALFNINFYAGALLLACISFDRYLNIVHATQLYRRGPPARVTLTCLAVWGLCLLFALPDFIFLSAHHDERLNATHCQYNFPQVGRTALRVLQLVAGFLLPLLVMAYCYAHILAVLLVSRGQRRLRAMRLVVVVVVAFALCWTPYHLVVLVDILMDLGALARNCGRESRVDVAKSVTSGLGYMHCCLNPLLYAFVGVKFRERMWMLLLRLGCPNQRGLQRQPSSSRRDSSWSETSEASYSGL
Experiment: Receptor internalization imaging (confocal laser scanning microscopy)
Type: cell-based
Details: CXCL11 10 nM; FAUC1036 10 µM and 1 µM; one hour; Figure 4A
Description: Receptor internalization imaging: The day before transfection HEK293T cells were seeded in 6-well plates at a density of 200,000 cells/well. Transient transfection of the C-terminally eGFP-tagged CXCR3 cDNA was performed using TransIT293(MIRUS). Cells were transferred to Poly-L-Lysine coated glass coverslips 24 h after transfection. 2 d after transfection, cells were washed with phosphate buffered saline (PBS) and treated with the endogenous chemokine CXCL11 or compound FAUC1036 at 37°C in 5% CO2 for 60min. Cells were fixed with 4% paraformaldehyde (RotiHistofix, Carl Roth) for 10min. […]
The effect of FAUC1036 on receptor internalization was investigated by scanning laser confocal microscopy and ELISA-based assay. […] The quantification of receptor internalization upon the treatment with the endogenous agonists and with either β-arrestin 2 biased FAUC1036 or G-protein biased FAUC1104 was performed with ELISA based assay. The HEK293T cells transiently expressing FLAG-CXCR3 were stimulated with compounds and chemokines for one hour, washed, fixed and the amount of FLAG-CXCR3 present on the surface was detected by anti-FLAG antibody.

## CC(C)(C)OC(=O)N[C@@H](CCCCNC(=O)[C@@H]1Cc2ccccc2CN1C(=O)CCC(=O)c1ccccc1)C(=O)NCC(c1ccccc1)c1ccccc1 [Compound 11, Tert-butyl ((S)-1-((2,2-diphenylethyl)amino)-1-oxo-6-((S)-2-(4-oxo-4-phenylbutanoyl)-1,2,3,4-tertahydroisoquinoline-3-carboxamido)hexan-2-yl)carbamate]
  CXCR3 internalization (confocal microscopy): induced the CXCR3 internalization; also recorded: led to the internalization of a significant portion of the receptors
